According to US4291164A, “Cephalosporin analogs and methods for production thereof” (Kyowa Hakko Kogyo Co., Ltd., priority 1978, dated 1981):
Values after ≈ are worked out from the molar mass of the structure shown.

Tests used:
[1] = J. Am. Chem. Soc. 96, 7584 (1974); J. Med. Chem. 20, 551; cited from earlier work
Vibrio percolans KY4174 = assay: Antibacterial activity, regular agar dilution, Vibrio percolans KY4174; type: cell-based; details: Comamonas terrigena, pH 7.0
Experimental: (§1) The antibacterial activity of (±)-cis-2-carboxy-7-[2-(thiophene-2-yl)acetylamino]-1-azabicyclo[4,2,0]oct-2-en-8-one obtained in Example 21 above is set forth below. The activity is determined by the regular agar dilution at pH 7.0.

Erwinia aroides KY3241 = assay: Antibacterial activity, regular agar dilution, Erwinia aroides KY3241; type: cell-based; details: pH 7.0
Experimental: as §1

[2] = test system: Staphylococcus aureus KY4279; assay: Antibacterial activity, regular agar dilution, Staphylococcus aureus KY4279; type: cell-based; details: pH 7.0
Experimental: as §1

Escherichia coli KY4271 = assay: Antibacterial activity, regular agar dilution, Escherichia coli KY4271; type: cell-based; details: pH 7.0
Experimental: as §1

Bacillus subtilis KY4273 = assay: Antibacterial activity, regular agar dilution, Bacillus subtilis KY4273; type: cell-based; details: pH 7.0
Experimental: as §1

Proteus vulgaris KY4277 = assay: Antibacterial activity, regular agar dilution, Proteus vulgaris KY4277; type: cell-based; details: pH 7.0
Experimental: as §1

Shigella sonnei KY4281 = assay: Antibacterial activity, regular agar dilution, Shigella sonnei KY4281; type: cell-based; details: pH 7.0
Experimental: as §1

[3] = test system: Salmonella typhosa KY4278; assay: Antibacterial activity, regular agar dilution, Salmonella typhosa KY4278; type: cell-based; details: Salmonella enterica, pH 7
Experimental: as §1

[4] = test system: Klebsiella penumoniae KY4275; assay: Antibacterial activity, regular agar dilution, Klebsiella penumoniae KY4275; type: cell-based; details: pH 7.0
Experimental: as §1

For `CC(=O)OCC1=C(C(=O)O)N2C(=O)C(NC(=O)Cc3cccs3)C2CC1` (racemic) [(±)-1-carbacephalotin], the “antibacterial activity (in words)” value [1] is given as “having antibacterial activity”.
Work on `O=C(Cc1cccs1)NC1C(=O)N2C(C(=O)O)=CCCC12` (stereo not drawn) [Example 21, (±)-cis-2-carboxy-7-[2-(thiophene-2-yl)acetylamino]-1-azabicyclo[4,2,0]oct-2-en-8-one] yielded an MIC (Vibrio percolans KY4174) of 2 µg/mL (≈ 6.53 µM), an MIC (Erwinia aroides KY3241) of 1 µg/mL (≈ 3.26 µM) and an MIC [2] of 1 µg/mL (≈ 3.26 µM). It also gave an MIC (Escherichia coli KY4271) of 8 µg/mL (≈ 26.1 µM), an MIC (Bacillus subtilis KY4273) of 2 µg/mL (≈ 6.53 µM) and an MIC (Proteus vulgaris KY4277) of 8 µg/mL (≈ 26.1 µM). The MIC (Shigella sonnei KY4281) was 8 µg/mL (≈ 26.1 µM), the MIC [3] was 1 µg/mL (≈ 3.26 µM) and the MIC [4] was 4 µg/mL (≈ 13.1 µM).
